Measured values as given in ChEMBL document CHEMBL3507680, “University of Dundee, Gates Library screen for HepG2 cell viability”.

Experiment: Human HepG2 cell viability assay in 384 well format
Format: toxicity, cell-based
Parameters: dose 125 nL, time 70.5 hour; concentration not given beside the values
Details: HepG2 cells, read-out: Inhibition

Structure (SMILES) | cytotoxicity at 70.5 h [%]
CCS(=O)(=O)CC(=O)NC(C)c1ccc(F)cc1F (stereo not given) | -6.32
Cc1nn(-c2ccccc2)c2c1C(c1ccc(C(=O)O)cc1)CC(=O)N2 (stereo not given) | -3.05
CC(=O)N1CCCC1c1nnn2cc(-c3ccncc3)ccc12 (stereo not given) | -5.32
NC(=O)CSc1nnc2[nH]c(=O)c3c(n12)CCCC3 | -12.6
CCn1nccc1CN(C)C(=O)Cn1nc(C)cc1C | 16.1
Cc1cc(C(F)(F)F)nc(CCNC(C)Cn2ccnc2)n1 (stereo not given) | -23.4
Cc1ccc(CNC(C)c2ccc(N3CCN(C)CC3)c(F)c2)o1 (stereo not given) | 0.0517
CNc1nc2c(s1)C(c1cccc(Cl)c1Cl)CC(=O)N2 (stereo not given) | -8.56
Cc1noc(C)c1CN(C)C(=O)CN1CC(c2ccccc2)CC1=O (stereo not given) | -6.3
Cc1noc(C(C)C)c1C(=O)N1CCOCC1CC(=O)c1ccco1 (stereo not given) | -5.66
CC(C)Cn1cncc1-c1nc2c([nH]1)CC(C)(C)CNC2=O | 4.26
Cn1cncc1CN1CC[C@](C)(O)[C@@H](Oc2cccc(F)c2)C1 | 13.9
CC(C)n1ccnc1CN1CCOC(C)(C(=O)N2CCOCC2)C1 (stereo not given) | -5.02
O=C(Cn1cncn1)NCC1CCN(Cc2ccccc2Cl)CC1 | 2.75
CN(C)c1ncc(-c2cccc(F)c2)c(C2CNCCO2)n1 (stereo not given) | -5.48
O=C(Cc1ccc(F)cc1F)NCC(=O)Nc1ccccn1 | -5.81
Cc1nn(CC(=O)N2CCN(Cc3cccnc3)CC2)c(C)c1Cl | -10.2
COc1cccc(C2CCN(c3ccc4cc[nH]c4n3)C2)c1OC (stereo not given) | 1.26
CN(CC(=O)NCC(CCO)c1ccccc1)C(=O)OC(C)(C)C (stereo not given) | 27.5
Cc1ccc(N2CC[C@@H]3O[C@@H](COCc4cccnc4)CC[C@@H]32)nn1 | -3.24
COCCN1Cc2ccccc2C2(CCN(S(C)(=O)=O)CC2)C1 | -5.3
Fc1ccc(-c2noc3c2CN(CC2CC2)CC3)cc1F | -29.6
Cc1ccc(C2CN(Cc3cccc4[nH]ccc34)CCO2)nc1 (stereo not given) | 46
COC(=O)C(c1ccccc1)N(C)C(=O)c1ccnc(C)n1 (stereo not given) | -8.31
COc1cccc([C@@H]2CCN(Cc3ccc4ccccc4n3)C[C@H]2O)c1 | -8.06
Cc1nn(C)c(Cl)c1C1CCCN1Cc1nc(C2CC2)no1 (stereo not given) | -7.26
Cc1cc(N(C)C)nc(C2(C)CCCN2C(=O)c2cncnc2C)n1 (stereo not given) | -10.8

Structure (SMILES) | cytotoxicity at 70.5 h [%]
CCOC[C@@H]1CC[C@H]2[C@H](CCN2S(=O)(=O)c2ccc(F)cc2)O1 | -6.92
CN(CCO)Cc1nnc(C2CCN(C(=O)c3ccccn3)CC2)n1C | 1.55
CSc1nc2ccsc2c(=O)n1CC(=O)N(C)C1CCCCC1 | -5.09
O=C(c1ccncc1)N1CCN2C[C@H](Oc3cncnc3)C[C@H]2C1 | 1.56
CCc1nc(C2CCCN2Cc2nc(C3CC3)no2)no1 (stereo not given) | -5.95
CCc1nn(C)c(Cl)c1CN(CC)Cc1cnn(CC)c1 | -6.7
O=C(O)C1(n2ccc(-c3ccco3)n2)CCN(Cc2cccs2)CC1 | 17.7
CC(C)n1cc(CN2CCCN(C(=O)C(C)n3cccn3)CC2)cn1 (stereo not given) | -2.97
OC1(CN2CCC(Cc3ncccn3)CC2)CCCCC1 | -5.56
O=C(c1cccc(Cl)c1)C1CCCN(c2nnc(C3CCC3)o2)C1 (stereo not given) | 5.93
Cc1nn2c(NCC(=O)NC3CC3)cc(-c3ccccc3)nc2c1C | -2.36
N#Cc1ccc(S(=O)(=O)NC(=O)c2csc(-c3ccco3)n2)cc1 | -2.89
c1ccc2c(c1)CCN2c1nc(N2CCOCC2)c2nn[nH]c2n1 | 32.9
Cc1cc(CSC2CCCN(c3cnn(C)c3)C2=O)no1 (stereo not given) | -3.62
O=C(Cc1c[nH]c(=O)[nH]c1=O)N1CCC2(CCC(=O)N(C3CC3)C2)CC1 | 0.183
Cc1ccc(S(=O)(=O)N2C[C@H]3C[C@H](NC(=O)c4cscn4)[C@H]3C2)cc1 | 9.07
CS(=O)(=O)c1cccc(S(=O)(=O)NC(=O)CCC2CCCCC2)c1 | -7.19
CCc1noc(C(C)N2CCN(c3ncnc4sccc34)CC2)n1 (stereo not given) | 1.35
O=C(O)CC(CC(=O)N(Cc1ccsc1)C1CC1)c1cccs1 (stereo not given) | 20.8
CCc1ccsc1C(=O)N1CCN(CC(C)(C)O)CC1 | -5.61
CC1COCCN1Cc1nc(-c2ccsc2)no1 (stereo not given) | -3.54
CCc1cc(C(=O)N2CC[C@@H](c3ccc4ccccc4c3)[C@H](O)C2)[nH]n1 | 35
CCN(Cc1cnc(-c2ccccn2)nc1)C1CCS(=O)(=O)C1 (stereo not given) | 5
Cc1cc(NC(=O)CN(CC(C)O)c2ccccc2)on1 (stereo not given) | -3.15
Cc1ccc(CN2CCc3c(nnn3C)C2COCc2ccccc2)s1 (stereo not given) | -7.66
CC(=O)N1CC[C@H]2CC(=O)N(CCc3c[nH]cn3)CC[C@H]2C1 | -2.6
CNCc1ccc(Oc2cncc(C)n2)cc1 | -12.9

Structure (SMILES) | cytotoxicity at 70.5 h [%]
CSc1ccc(C2CC(=O)Nc3c2c(=O)[nH]n3C(C)C)cc1 (stereo not given) | -9.28
CCn1nnc2c1C(COCCN(C)C)CN(S(C)(=O)=O)C2 (stereo not given) | 2.19
O=C(c1cc(F)ccc1F)C1CCN(C(=O)c2ccco2)CC1 | -3.7
COCCc1noc(CN(C)c2nc(C)cc(C)n2)n1 | -9.27
O=c1cc(CN2CCCC2)nc2n1CCCN(CC1CC1)C2 | 20.8
O=C(c1nc(Cc2c[nH]c3ccccc23)no1)N1CCCCC1 | -7.41
CCS(=O)(=O)N1CCOC2(COCCN(C(C)=O)C2)C1 (stereo not given) | 28.6
Cn1ccnc1C(=O)N1CCCC(Cn2cc(CO)nn2)C1 (stereo not given) | -1.24
CC1CCN(S(=O)(=O)N2CCc3c(c(C(=O)O)nn3CC3CC3)C2)CC1 | 1.09
COc1cccc(CC(=O)N2CC[C@@H]3[C@H](CC2)N(C)CCS3(=O)=O)c1 | -2.21
CSCC(=O)N1CCC(c2nccn2Cc2cscn2)CC1 | -2.59
O=S(=O)(c1ccc(F)cc1)N1CCOC[C@H](Oc2cnccn2)C1 | 12.5
CN(C)CCN1CCO[C@H]2CN(Cc3ccccn3)C[C@H]21 | -6
CC(CNC(=O)N1CCN(c2cnccn2)CC1)Cc1cccs1 (stereo not given) | -4.18
COc1cc(OC)cc(C(=O)N(C)Cc2nnc3ccccn23)c1 | -1.71
COc1cc(F)ccc1C(C(=O)O)N(C)CCN1CCCC1 (stereo not given) | 12.1
CCc1ccc(C2CC(=O)Nc3cc(NS(C)(=O)=O)ccc32)o1 (stereo not given) | 31.4
CCC(NCc1ccccc1)c1ccccc1OCC(=O)NC (stereo not given) | -6.53
COCC(=O)N1CCN(C)C(=O)C(Cc2ccccc2-c2cccs2)C1 (stereo not given) | 1.61
COCC(=O)NCC1Cn2nnc(-c3ccoc3)c2CO1 (stereo not given) | -6.95
F[C@@H]1CN(Cc2ccccc2)C[C@@H]1OCc1nc2ccccc2[nH]1 | 0.621
Cc1c(Cl)c(C(=O)N2CC[C@H](N3CCOCC3)[C@H](CCCO)C2)nn1C | 3.03
CCC(=O)Nc1c(C)nn(COc2cccc(F)c2)c1C | -2.04
CCc1nnc(CN2CCOC(Cn3cccn3)C2)o1 (stereo not given) | -8.14
c1ccc(Cc2noc(CN3CCCC(Cn4cncn4)C3)n2)cc1 (stereo not given) | -14.5
CCN(CC)C1(Cc2cc(-c3ccccn3)on2)COC1 | -4.45
